Test results reported in patent US20090286827A1, “NOVEL BI-ARYL AMINES” (priority 2006, published 2009).

molecular target: T1, mGluR5 (Homo sapiens, UniProt P41594); assay: inhibition of the glutamate induced elevation of intracellular Ca2+-concentration; format: cell-based; details: inhibition of glutamate induced elevation of intracellular Ca2+ at a concentration of 10 μM; read-out: mGluR5 Activity inh. at 10 μM [%]
T1 construct: expressed in transfected cells
Description: This can be determined in vitro for example at recombinant human metabotropic glutamate receptors, especially PLC-coupled subtypes thereof such as mGluR5, using different procedures like, for example, measurement of the inhibition of the agonist induced elevation of intracellular Ca^2+ concentration in accordance with L. P. Daggett et al., Neuropharm. Vol. 34, pages 871-886 (1995), P. J. Flor et al., J. Neurochem. Vol. 67, pages 58-63 (1996) or by determination to what extent the agonist induced elevation of the inositol phosphate turnover is inhibited as described by T. Knoepfel et al., Eur. J. Pharmacol. Vol. 288, pages 389-392 (1995), L. P. Daggett et al., Neuropharm. Vol. 34, pages 871-886 (1995) and references cited therein. Isolation and expression of human mGluR subtypes are described in U.S. Pat. No. 5,521,297. Selected agents of the invention show IC50 values for the inhibition of the agonist (e.g. glutamate or quisqualate) induced elevation of intracellular Ca2+ concentration or the agonist (e.g. glutamate or quisqualate) induced inositol phosphate turnover, measured in recombinant cells expressing hmGluR5a of about 1 nM to about 50 μM.
Activity of compounds of the present invention was examined by measurement of the inhibition of the glutamate induced elevation of intracellular Ca^2+-concentration following similar methods than those described in L. P. Daggett et al., Neuropharm. Vol. 34, pages 871-886 (1995), P. J. Flor et al., J. Neurochem. Vol. 67, pages 58-63 (1996).
The table below represents percentages of inhibition of the glutamate induced elevation of intracellular Ca^2+-concentration at a concentration of 10 μM.

T1 sequence (P41594 21-1180 isoform P41594-2 limits assumed): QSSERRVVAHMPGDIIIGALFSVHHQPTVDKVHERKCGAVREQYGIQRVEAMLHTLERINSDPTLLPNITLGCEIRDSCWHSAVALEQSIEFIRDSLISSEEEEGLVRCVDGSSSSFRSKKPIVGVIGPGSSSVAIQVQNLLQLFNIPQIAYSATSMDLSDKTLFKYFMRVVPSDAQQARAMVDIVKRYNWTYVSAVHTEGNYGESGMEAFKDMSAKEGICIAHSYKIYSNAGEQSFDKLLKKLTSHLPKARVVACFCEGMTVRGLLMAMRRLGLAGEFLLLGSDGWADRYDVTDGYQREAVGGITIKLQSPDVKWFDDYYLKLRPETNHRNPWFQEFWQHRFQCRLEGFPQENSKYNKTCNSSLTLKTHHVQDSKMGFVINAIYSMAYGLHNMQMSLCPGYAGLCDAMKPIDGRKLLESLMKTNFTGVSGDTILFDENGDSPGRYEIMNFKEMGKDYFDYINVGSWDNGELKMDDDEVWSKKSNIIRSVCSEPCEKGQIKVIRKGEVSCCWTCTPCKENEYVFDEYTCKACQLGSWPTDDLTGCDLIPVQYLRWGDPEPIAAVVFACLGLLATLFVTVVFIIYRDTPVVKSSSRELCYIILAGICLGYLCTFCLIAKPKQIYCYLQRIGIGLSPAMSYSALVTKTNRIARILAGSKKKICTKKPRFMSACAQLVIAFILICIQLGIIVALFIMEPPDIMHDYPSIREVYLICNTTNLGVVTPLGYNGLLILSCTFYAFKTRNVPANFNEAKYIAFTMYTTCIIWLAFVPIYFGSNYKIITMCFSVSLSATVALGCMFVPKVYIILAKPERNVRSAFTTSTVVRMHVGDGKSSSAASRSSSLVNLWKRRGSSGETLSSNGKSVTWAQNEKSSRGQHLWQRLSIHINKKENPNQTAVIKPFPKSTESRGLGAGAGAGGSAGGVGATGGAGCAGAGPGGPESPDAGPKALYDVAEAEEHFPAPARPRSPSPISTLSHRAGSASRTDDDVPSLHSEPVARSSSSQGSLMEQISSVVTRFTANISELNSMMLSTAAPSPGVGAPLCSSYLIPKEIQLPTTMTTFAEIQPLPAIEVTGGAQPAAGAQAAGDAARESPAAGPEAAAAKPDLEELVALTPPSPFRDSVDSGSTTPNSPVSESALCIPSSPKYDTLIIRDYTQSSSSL

Structure (SMILES)	inhibition at 10 µM
CCn1cc(C(C)(C)C)nc1-c1cnc(Nc2ccc(Cl)cc2)c(Cl)c1 [Compound 39, [5-(4-tert-Butyl-1-ethyl-1H-imidazol-2-yl)-3-chloro-pyridin-2-yl]-(4-chloro-phenyl)-amine]	97%
CCCn1cc(C(C)(C)C)nc1-c1cnc(Nc2ccc(Cl)cc2)c(Cl)c1 [Compound 40, [5-(4-tert-Butyl-1-propyl-1H-imidazol-2-yl)-3-chloro-pyridin-2-yl]-(4-chloro-phenyl)-amine]	100%
CCCCn1cc(C(C)(C)C)nc1-c1cnc(Nc2ccc(Cl)cc2)c(Cl)c1 [Compound 41, [5-(1-Butyl-4-tert-butyl-1H-imidazol-2-yl)-3-chloro-pyridin-2-yl]-(4-chloro-phenyl)-amine]	79%
CCCn1c(-c2cnc(Nc3ccc(Cl)cc3)c(Cl)c2)nc(C)c1C [Compound 42, [3-Chloro-5-(4,5-dimethyl-1-propyl-1H-imidazol-2-yl)-pyridin-2-yl]-(4-chloro-phenyl)-amine]	94%
CCc1c(C)n(CC)c(-c2cnc(Nc3ccc(Cl)cc3)c(Cl)c2)[n+]1CC [Compound 43, 2-[5-Chloro-6-(4-chloro-phenylamino)-pyridin-3-yl]-1,3,5-triethyl-4-methyl-3H-imidazol-1-ium iodide]	37%
CCCCc1cnnn1-c1cnc(Nc2ccc(Cl)cc2)c(Cl)c1 [Compound 44, [5-(5-Butyl-[1,2,3]triazol-1-yl)-3-chloro-pyridin-2-yl]-(4-chloro-phenyl)-amine]	98%
CCCc1cnnn1-c1cnc(Nc2ccc(Cl)cc2)c(Cl)c1 [Compound 45, (4-Chloro-phenyl)-[3-chloro-5-(5-propyl-[1,2,3]triazol-1-yl)-pyridin-2-yl]-amine]	89%
CCCc1nn[nH]c1-c1cnc(Nc2ccc(Cl)cc2)c(Cl)c1 [Compound 46, (4-Chloro-phenyl)-[3-chloro-5-(5-propyl-3H-[1,2,3]triazol-4-yl)-pyridin-2-yl]-amine]	68%
CC(C)c1nccn1-c1cnc(Nc2ccc(Cl)cc2)c(Cl)c1 [Compound 47, [3-Chloro-5-(2-isopropyl-imidazol-1-yl)-pyridin-2-yl]-(4-chloro-phenyl)-amine]	34%
Cc1cncn1-c1cnc(Nc2ccc(Cl)cc2)c(Cl)c1 [Compound 48, [3-Chloro-5-(5-methyl-imidazol-1-yl)-pyridin-2-yl]-(4-chloro-phenyl)-amine]	32%
Cc1cn(-c2cnc(Nc3ccc(Cl)cc3)c(Cl)c2)cn1 [Compound 49, [3-Chloro-5-(4-methyl-imidazol-1-yl)-pyridin-2-yl]-(4-chloro-phenyl)-amine]	35%
